# Data: PubChem BioAssay AID720563 (Broad Institute, 2013)
# Values joined by “and” are separate entries in the source; they are usually repeats but may differ in a detail not shown here. Equal values may be shown once. Active and inactive are the calls of the source.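 The calls were made as follows: active = compounds whose fitted AC50 lies at or below twice their top valid test dose; inconclusive = flat curve between -70 and -30 percent, or unreliable curve fit; inactive = the rest.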
# Biological target: Transforming acidic coiled-coil-containing protein 3 (Homo sapiens) (UniProt Q9Y6A5)
# Assay: ARNT/TACC3 binding disruptors, dose response, biochemical, AlphaScreen, dry powder (AID 720563)
# Settings: AlphaScreen His-ARNT PAS-B/GST-TACC3 binding, luminescence
row,Structure (SMILES),AC50
1,COc1ccc(-c2nnc(NC(=O)c3ccc(S(=O)(=O)N4CCC(C)CC4)cc3)o2)cc1,17800 nM
2,CC1CCN(S(=O)(=O)c2ccc(C(=O)Nc3nnc(-c4ccco4)o3)cc2)CC1,34100 nM
3,CC(C)CC(=O)NC(c1cccs1)c1ccc2cccnc2c1O (stereo unspecified),797 nM
4,O=C(Cc1ccccc1)NC(c1ccco1)c1ccc2cccnc2c1O (stereo unspecified),1490 nM
5,CC1CCN(S(=O)(=O)c2ccc(C(=O)Nc3nnc(C4CC4)o3)cc2)CC1,16700 nM
6,CC(C)C(=O)NC(c1ccco1)c1ccc2cccnc2c1O (stereo unspecified),452 nM
7,CC1CCN(S(=O)(=O)c2ccc(C(=O)Nc3nnc(C4=COCCO4)o3)cc2)CC1,17600 nM
8,CC1CC(C)CN(S(=O)(=O)c2ccc(C(=O)Nc3nnc(C4=COCCO4)o3)cc2)C1 (stereo unspecified),35600 nM
9,COC(=O)Cc1cc(=O)n(-c2nc3ccccc3[nH]2)[nH]1,1910 nM
10,CC1CCCN(S(=O)(=O)c2ccc(C(=O)Nc3nnc(C4=COCCO4)o3)cc2)C1 (stereo unspecified),11200 nM
11,CC(C)C(=O)NC(c1ccco1)c1cc(Cl)c2cccnc2c1O (stereo unspecified),5100 nM
12,CCn1nc(-c2cccnc2)nc2c(=O)n(C)c(=O)nc1-2,78.4 nM
13,CSc1ccc(-c2nnc(NC(=O)c3ccc(S(=O)(=O)N4CCC(C)CC4)cc3)o2)cc1,5810 nM
14,Cc1ccc(C(=O)Nc2nc(-c3ccccc3)cs2)o1,> 136000 nM (inactive)
15,CCCCC(=O)NC(c1ccco1)c1ccc2cccnc2c1O (stereo unspecified),1390 nM

# Second part, the compound after the results:
row,AC50,Structure (SMILES)
1,806 nM,Cc1ccc(C(=O)Nc2nc(-c3ccccn3)cs2)o1
2,884 nM,O=C(CSc1n[nH]c(-c2ccccn2)n1)Nc1ccc(Cl)cc1
3,23000 nM,O=C(Nc1nnc(-c2ccc(F)cc2)o1)c1ccc(S(=O)(=O)N2CCCCC2)cc1
4,869 nM,O=C(CSc1ccc(-c2ccccn2)nn1)Nc1ccccc1
5,20400 nM,CC1CCN(S(=O)(=O)c2ccc(C(=O)Nc3nnc(-c4ccccc4)o3)cc2)CC1
6,819 nM,Cc1cccc(NC(=O)CSc2ccc(-c3ccccn3)nn2)c1C
7,262 nM,O=C(CSc1ccc(-c2ccccn2)nn1)Nc1nccs1
8,649 nM,Nc1nc(-c2ccccn2)nc(N)c1Cc1ccc(Cl)cc1Cl
9,1680 nM,O=C(CSc1ccc(-c2ccccn2)nn1)N1CCCC1
10,1110 nM,Cc1ccc(C(=O)Nc2nc(-c3ccccn3)cs2)cc1S(=O)(=O)N1CCOCC1
11,1630 nM,O=C(CSc1ccc(-c2ccccn2)nn1)NC1CCCCC1
12,1750 nM,Cc1c(C(=O)N(C)C)sc2nc(-c3ccccn3)[nH]c(=O)c12
13,39600 nM,CC1CCN(S(=O)(=O)c2ccc(C(=O)Nc3nnc(-c4ccccn4)o3)cc2)CC1
14,> 136000 nM (inactive),CC(C)Cc1nnc(NC(=O)c2cccc(S(=O)(=O)N3CCOCC3)c2)s1
15,820 nM,O=C(Nc1nc(-c2ccccn2)cs1)c1ccco1
16,49800 nM,CC1CCN(S(=O)(=O)c2ccc(C(=O)Nc3nnc(-c4cccs4)o3)cc2)CC1
17,1240 nM,CCc1cc2c(=O)[nH]c(-c3ccccn3)nc2s1
18,368 nM and 190 nM,c1ccc(-c2nc(-c3ccncc3)n[nH]2)nc1
19,14300 nM,Cc1nnc(NC(=O)c2ccc(S(=O)(=O)N3CCCCC3)cc2)o1
20,11400 nM,CC1CCN(S(=O)(=O)c2ccc(C(=O)Nc3nnc(-c4ccno4)o3)cc2)CC1
21,342 nM,O=C(Nc1nc(-c2ccccn2)cs1)c1ccc(S(=O)(=O)N2CCOCC2)cc1
22,19100 nM,O=C(Nc1nnc(C2=COCCO2)o1)c1ccc(S(=O)(=O)N2CCCCC2)cc1
23,630 nM,COC(=O)c1ccc(NC(=O)CSc2ccc(-c3ccccn3)nn2)cc1
24,65900 nM,O=C(Nc1nc(-c2ccncc2)cs1)c1cccc(S(=O)(=O)N2CCOCC2)c1

# Same assay, conditions: AlphaScreen His-ARNT PAS-B/GST-TACC3 binding, luminescence; at 68 µM (top of the series)
row,"activity change, negative = inhibition",Structure (SMILES)
1,inactive,Cc1ccc(S(=O)(=O)CCc2nnc(NC(=O)c3ccccc3)s2)cc1
2,inactive,FC(F)(F)c1cc(-c2nn[nH]n2)cc(C(F)(F)F)c1
